Source: publication PMC10347458 (Leukemia, 2023)
≈ marks a conversion by molar mass, not a printed value. Where two headings read alike, the source gives them in different places.

Assays:
human T-ALL samples = experiment: Ex vivo leukemia sensitivity; type: cell-based
[1] = type: in vivo, NSG mice; conditions: for AUC(0-inf) / CL/F / Cmax / Tmax / half-life / AUC(0-t): NSG, mouse, in vivo, po; for AUC(0-t): AUC0–24hrs
pCRKL = conditions: chronic myeloid leukemia (CML) patients; cited from earlier work
[2] = tested on: LCK-activated T-ALL PDX models; experiment: In vivo evaluation of ponatinib efficacy in T-ALL PDXs; set-up: species or system NSG mice; conditions: 30 mg/kg once daily oral, three T-ALL PDX models, blast % in peripheral blood
[3] = target: pLCK (phosphorylated LCK) (Homo sapiens, UniProt P06239); experiment: PD: pLCK; type: in vivo; conditions: for Median duration of pLCK/LCK <50% (10th-90th percentile): mice (Table 2)
LCK (T316I) in KOPT-K1-R = LCK (T316I) in KOPT-K1-R (Homo sapiens, UniProt P06239, T316I); conditions: 100nM, 3 hrs treatment
Chain of LCK (T316I) in KOPT-K1-R (P06239 whole entry T316I): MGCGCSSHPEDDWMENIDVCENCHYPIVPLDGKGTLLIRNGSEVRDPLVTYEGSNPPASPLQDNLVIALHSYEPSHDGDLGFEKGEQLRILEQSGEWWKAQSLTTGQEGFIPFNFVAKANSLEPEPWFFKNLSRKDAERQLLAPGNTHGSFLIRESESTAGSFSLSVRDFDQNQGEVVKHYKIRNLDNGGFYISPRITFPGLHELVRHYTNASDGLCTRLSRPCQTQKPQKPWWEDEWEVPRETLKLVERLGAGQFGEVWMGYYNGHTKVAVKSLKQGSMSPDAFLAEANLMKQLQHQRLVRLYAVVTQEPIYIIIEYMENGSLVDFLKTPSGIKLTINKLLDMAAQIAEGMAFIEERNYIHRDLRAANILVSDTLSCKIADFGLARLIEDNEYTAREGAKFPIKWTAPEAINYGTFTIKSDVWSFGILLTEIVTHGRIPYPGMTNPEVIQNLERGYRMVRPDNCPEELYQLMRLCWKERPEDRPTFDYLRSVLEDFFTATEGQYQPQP

Chain of pLCK (phosphorylated LCK) (P06239 whole entry): as the sequence (P06239 whole entry T316I) above, with I316T counted along it

## Cc1nc(Nc2ncc(C(=O)Nc3c(C)cccc3Cl)s2)cc(N2CCN(CCO)CC2)n1 [dasatinib]
Human T-ALL samples; adult T-ALL
  Dasatinib sensitivity (LC50 <80nM) observed: 9.1%
Human T-ALL samples; pediatric T-ALL
  Dasatinib sensitivity (LC50 <80nM) observed: 47.5%
[1]; 20 mg/kg
  AUC(0-inf): 500 ng·h/mL
  CL/F: 667 mL/min/kg
  Cmax: 102 ng/mL
  Tmax: 1.17 h
  half-life: 0.35 h
[1]; 40 mg/kg
  AUC(0-inf): 1950 ng·h/mL
  CL/F: 341 mL/min/kg
  Cmax: 366 ng/mL
  Tmax: 1.17 h
  half-life: 0.34 h
  AUC(0-t): 1940 ng·h/mL
pCRKL
  Time above 50% pCRKL inhibition considered sufficient to elicit a clinical response: 12.8 hrs per day

## Cc1ccc(C(=O)Nc2ccc(CN3CCN(C)CC3)c(C(F)(F)F)c2)cc1C#Cc1cnc2cccnn12 [ponatinib]
Human T-ALL samples; 51 samples with both drugs tested, P =0.0038, Wilcoxon matched-pairs signed rank test
  LC50 compared with that of dasatinib: significantly lower
Human T-ALL samples; Homo sapiens, read-out: Median LC50
  CC50: 433 nM
Human T-ALL samples; all 52 T-ALL cases (n=17)
  Samples classified as sensitive to ponatinib (LC50 cutoff 90nM): 32.7%
[2]
  Leukemia growth in mice vs vehicle control: significantly inhibited leukemia growth
[1]; 15 mg/kg
  AUC(0-inf): 1530 ng·h/mL
  CL/F: 163 mL/min/kg
  Cmax: 181 ng/mL
  Tmax: 3.04 h
  half-life: 1.92 h
[1]; 15 mg/kg, ponatinib 15 mg (15 mg/kg) single oral dose, NSG mice, median (5th-95th percentile)
  AUC(0-t): 1530 ng·h/mL
[1]; 30 mg/kg
  AUC(0-inf): 3010 ng·h/mL
  CL/F: 166 mL/min/kg
  Cmax: 356 ng/mL
  Tmax: 3.08 h
  half-life: 1.92 h
[1]; 30 mg/kg, ponatinib 30 mg (30 mg/kg) single oral dose, NSG mice, median (5th-95th percentile)
  AUC(0-t): 3000 ng·h/mL
[1]; ponatinib 30 mg (30 mg/kg) single oral dose, NSG mice, median (5th-95th percentile)
  AUC0–24hrs: 2996.56 (2707.46–3351.17) ng hr/mL
[3]; po, read-out: EC90 (CV%)
  EC90: 0.063 µg/mL (≈ 0.118 µM)
[3]; ponatinib 15 mg/kg oral
  Median duration of pLCK/LCK <50% (10th-90th percentile): 15 mg/kg 10.5 (0, 24.0) hrs/day
[3]; ponatinib 30 mg/kg oral
  Median duration of pLCK/LCK <50% (10th-90th percentile): 30 mg/kg 14.8 (0, 24.0) hrs/day
LCK (T316I) in KOPT-K1-R
  Block of LCK phosphorylation: around 50%
